Converted amounts (≈) assume the structure as drawn.

A short description of series [1]: Apparent permeability from apical to basolateral side in MDCKI cells at 10 uM measured upto 180 mins by LC-MS/MS analysis. In kind it is ADME, cell-based, Canis lupus familiaris, MDCK1. To be noted: dog, MDCK.
Series [2] can be described thus: Plasma protein binding in human at 5 uM incubated for 4 hrs by HPLC analysis. In kind it is ADME, cell-free. To be noted: read-out: PPB (converted).
A short description of series [3]: Plasma protein binding in CD-1 mouse at 5 uM incubated for 4 hrs by HPLC analysis. In kind it is ADME, cell-free. To be noted: read-out: PPB (converted).
Series [4] in a line: Solubility of the compound in FaSSIF. In kind it is ADME.
The nature of series [5]: Plasma clearance in female C57Bl/6 mouse at 1 mg/kg, iv measured upto 8 hrs by LC-MS/MS analysis. It is filed as ADME, organism-based.
Series [6] in a line: Volume of distribution in female C57Bl/6 mouse at 1 mg/kg, iv measured upto 8 hrs by LC-MS/MS analysis. It is filed as ADME, organism-based. To be noted: in vivo.
Series [7] in a line: Half life in female C57Bl/6 mouse at 10 mg/kg, po measured upto 8 hrs by LC-MS/MS analysis. In kind it is ADME, organism-based. To be noted: in vivo.
Series [8] in a line: Oral bioavailability in female C57Bl/6 mouse at 10 mg/kg measured upto 8 hrs by LC-MS/MS analysis. In kind it is ADME, organism-based. To be noted: in vivo.
Series [9] concerns the target T1, von Hippel-Lindau disease tumor suppressor (Homo sapiens, UniProt P40337).
The target of series [10] is T1, von Hippel-Lindau disease tumor suppressor. Put plainly: biochemical.
Description: Binding affinity to VHL (unknown origin)-NanoLuc fusion protein expressed in HEK293 cells assessed as apparent dissociation constant incubated for 30 mins in presence of digitonin by NanoBRET assay
Series [11] can be described thus: Permeability of the compound at pH 7.4 in PBS incubated for 16 hrs by LC-MS/MS based PAMPA assay. In kind it is ADME. To be noted: read-out: permeability. In general terms: In PAMPA a lipid-coated filter parts donor from acceptor wells.
For series [12], the target named is T1, von Hippel-Lindau disease tumor suppressor. Put plainly: Binding affinity to Navi-tagged VHL (unknown origin) assessed as dissociation constant by SPR assay. Background: In SPR one partner is held on a chip, and binding of the other changes the refractive index at the surface.

T1 sequence (P40337 whole entry): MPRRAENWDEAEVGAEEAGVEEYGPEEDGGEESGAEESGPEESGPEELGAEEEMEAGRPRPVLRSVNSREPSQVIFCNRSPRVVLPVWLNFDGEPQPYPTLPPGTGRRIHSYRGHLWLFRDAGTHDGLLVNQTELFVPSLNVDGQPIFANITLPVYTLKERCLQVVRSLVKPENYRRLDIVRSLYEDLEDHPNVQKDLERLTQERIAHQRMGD

What is called Papp A→B is the apparent permeability from the apical to the basolateral side of a cell layer. Usually solubility stands for the dissolved amount per volume that the medium holds. Read a high solubility as much dissolved substance. In general, clearance refers to the rate of elimination divided by the concentration. Low readings indicate a low capacity for elimination, high ones a high capacity for elimination. The term Vd denotes the apparent volume that relates the amount in the body to the concentration in plasma or blood. High values mean wide distribution into tissue, low ones little distribution into tissue. For orientation: half-life means the time needed for the level to fall by half in the phase considered. A low value points to fast loss. In general, bioavailability refers to dose-corrected exposure relative to a reference, in per cent. The term Kd denotes the equilibrium constant for the complex coming apart. As to `CC(=O)N[C@H](C(=O)N1C[C@H](O)C[C@H]1C(=O)N[C@@H](C)c1ccc(-c2scnc2C)cc1)C(C)(C)C`, in [1], the apparent permeability from apical to basolateral (Papp A→B) at 3 h, 10 µM came out at 0.7 ×10⁻⁶ cm/s. Also, the fraction unbound at 4 h, 5 µM is 0.516 in [2] and 0.399 in series [3]. In series [4], the solubility is above 200 µM. Besides, in [5], the clearance was determined as 57.7 mL/min/kg. This compound gave a Vd in [6] of 0.9 L/kg. Further, the half-life in [7] was 3.8 h. In series [8], the bioavailability came out at 2.7%. Further, the values for the Kd in series [9] and in series [10] were 180 nM and 120 nM, respectively.

`CC(=O)N[C@H](C(=O)N1C[C@H](O)C[C@H]1C(=O)N[C@H](Cc1ccc(-c2scnc2C)cc1)C(N)=O)C(C)(C)C`: the Papp at 16 h in series [11] came out at 0.19 ×10⁻⁶ cm/s. The Kd is above 51800 nM in series [9] and 3290 nM in [10].

Consider `NC(=O)[C@@H](Cc1ccc(-c2ccccc2)cc1)NC(=O)[C@@H]1C[C@@H](O)CN1C(=O)[C@@H](n1cc(C2CC2)nn1)C12CC3CC(CC(C3)C1)C2`, for which the Kd in series [9] stood at 67 nM; in series [10], 83 nM.

On to `Cc1ncsc1-c1ccc([C@H](C)NC(=O)[C@@H]2C[C@@H](O)CN2C(=O)[C@@H](n2cc(C3CC3)nn2)C(C)(C)C)cc1`, for which the dissociation constant Kd in series [9] was found to be 3.3 nM; in [10], 3.9 nM.

Consider `NC(=O)[C@@H](Cc1ccc(-c2ccccc2)cc1)NC(=O)[C@@H]1C[C@@H](O)CN1C(=O)Cc1cccnn1`, for which the results for the dissociation constant Kd in [9] and in series [10] were above 57500 nM and above 51800 nM, respectively.

With `Cc1ncsc1-c1ccc2c(c1)CCCC[C@@H]2NC(=O)[C@@H]1C[C@@H](O)CN1C(=O)[C@@H](n1cc(C2CC2)nn1)C(C)(C)C`, the dissociation constant Kd in series [12] is 0.54 nM; in [9] it was below 2.5 nM; in [10], below 2.5 nM. Further, the Papp A→B at 3 h, 10 µM in series [1] stood at 8.9 ×10⁻⁶ cm/s. The fraction unbound at 4 h, 5 µM in [2] and in [3] was 0.003 throughout. In [4], this compound had a solubility of 190 µM (≈ 110 µg/mL). This compound also registered a clearance in series [5] of 13.9 mL/min/kg. In addition, the distribution volume (Vd) in series [6] was determined as 0.7 L/kg. This compound also had a half-life in [7] of 2.3 h. The compound also gave a bioavailability in series [8] of 46.5%.

On to `CC(C)[C@@H](C(=O)N1C[C@H](O)C[C@H]1C(=O)N[C@H](Cc1ccc(-c2ccccc2)cc1)C(N)=O)c1cccnc1`, for which the Kd in [9] is 24700 nM; in series [10], 32100 nM.

With `Cc1cnn([C@H](C(=O)N2C[C@H](O)C[C@H]2C(=O)N[C@H](Cc2ccc(-c3ccccc3)cc2)C(N)=O)C(C)C)c1`, the figures for the Kd in [9] and in [10] were 25400 nM and 18600 nM, respectively.

For `NC(=O)[C@@H](Cc1ccc(-c2ccccc2)cc1)NC(=O)[C@@H]1C[C@@H](O)CN1C(=O)Cc1cccnc1`, the figures for the Kd in series [9] and in series [10] were above 57500 nM and above 51800 nM, respectively.

With `Cc1cn([C@H](C(=O)N2C[C@H](O)C[C@H]2C(=O)N[C@H](Cc2ccc(-c3ccccc3)cc2)C(N)=O)C(C)C)cn1`, the Kd in series [9] was above 57500 nM; in series [10], 48500 nM.

Take `NC(=O)[C@@H](Cc1ccc(-c2ccccc2)cc1)NC(=O)[C@@H]1C[C@@H](O)CN1C(=O)[C@H](C1CCC1)n1cc(C2CC2)nn1`: the dissociation constant (Kd) in series [9] was found to be 110 nM; in series [10], 100 nM.

Turning to `CC(C)(C)[C@@H](C(=O)N1C[C@H](O)C[C@H]1C(=O)N[C@H](Cc1ccc(-c2ccccc2)cc1)C(N)=O)n1cc(C(=O)O)nn1`, the Kd in series [9] was found to be 40100 nM; in series [10], 310 nM.

Take `C=CC(C)(C)[C@@H](C(=O)N1C[C@H](O)C[C@H]1C(=O)N[C@H](Cc1ccc(-c2ccccc2)cc1)C(N)=O)n1cc(C2CC2)nn1`: the values for the Kd in series [9] and in series [10] were 63 nM and 84 nM, respectively.

As for `CC(C)(C)[C@@H](C(=O)N1C[C@H](O)C[C@H]1C(=O)N[C@H](Cc1ccc(-c2ccccc2)cc1)C(N)=O)n1cc(C2CC2)nn1`, the Kd in [9] worked out at 85 nM; in series [10], 71 nM.

Turning to `Cc1cc(C2(C(=O)N3C[C@H](O)C[C@H]3C(=O)N[C@H](Cc3ccc(-c4ccccc4)cc3)C(N)=O)CC2)on1`, the Kd in series [9] was above 57500 nM; in series [10], above 51800 nM.

For the compound `Cc1ccc(CC(=O)N2C[C@H](O)C[C@H]2C(=O)N[C@H](Cc2ccc(-c3ccccc3)cc2)C(N)=O)cn1`, the Kd was above 57500 nM in [9] and above 51800 nM in [10].

On to `CC(C)[C@@H](C(=O)N1C[C@H](O)C[C@H]1C(=O)N[C@H](Cc1ccc(-c2ccccc2)cc1)C(N)=O)c1cnn(C)c1`, for which the Kd is above 57500 nM in [9] and 45700 nM in [10].

Turning to `CCC(C)(C)[C@@H](C(=O)N1C[C@H](O)C[C@H]1C(=O)N[C@H](Cc1ccc(-c2ccccc2)cc1)C(N)=O)n1cc(C2CC2)nn1`, the Kd in series [9] amounted to 59 nM; in series [10], 69 nM.

On to `CC(C)(C)[C@@H](C(=O)N1C[C@H](O)C[C@H]1C(=O)N[C@H](Cc1ccc(-c2ccccc2)cc1)C(N)=O)n1cc(C(N)=O)nn1`, for which the results for the Kd in [9] and in series [10] were 1900 nM and 210 nM, respectively.

Take `CC(=O)N[C@H](C(=O)N1C[C@H](O)C[C@H]1C(=O)N[C@H](Cc1ccc(-c2ccccc2)cc1)C(N)=O)C(C)(C)C`: the Papp at 16 h in series [11] was determined as 0.004 ×10⁻⁶ cm/s.

For `CC[C@H](C)[C@@H](C(=O)N1C[C@H](O)C[C@H]1C(=O)N[C@H](Cc1ccc(-c2ccccc2)cc1)C(N)=O)n1cc(C2CC2)nn1`, the Kd in series [9] turned out to be 74 nM; in [10], 87 nM.

In the case of `CC(C)(C)[C@H](N=[N+]=[N-])C(=O)N1C[C@H](O)C[C@H]1C(=O)N[C@H](Cc1ccc(-c2ccccc2)cc1)C(N)=O`, the results for the equilibrium dissociation constant (Kd) in [9] and in [10] were 35000 nM and 23900 nM, respectively.

For the compound `Cc1ncsc1-c1ccc(CNC(=O)[C@@H]2C[C@@H](O)CN2C(=O)[C@@H](n2cc(C3CC3)nn2)C(C)(C)C)cc1`, the dissociation constant (Kd) in series [9] came out at 6.3 nM; in series [10], 6.5 nM.

Take `CC(=O)N[C@H](C(=O)N1C[C@H](O)C[C@H]1C(=O)NC(C(N)=O)c1ccc(-c2scnc2C)cc1)C(C)(C)C` (mixture of isomers): the equilibrium dissociation constant (Kd) turned out to be 5170 nM in series [9] and 500 nM in series [10].

The values are drawn from ChEMBL document CHEMBL5506066, “Potency-Enhanced Peptidomimetic VHL Ligands with Improved Oral Bioavailability” (J Med Chem, 2024).
